Measured values from patent US10221271B2, “Polymer/copper combination for targeted cancer therapy” (University of South Carolina, priority 2014, dated 2019).

Legend:
[1] = test system: intracellular GSH in NCI/ADR-Res, UMSCC 22A, and SKOV-3 cells; assay: GSH-Glo Glutathione Assay, intracellular GSH level; assay type: cell-based; settings: BSO 1 mM, 8 h
Experimental: (§1) It has been reported that GSH levels in tumor tissues, such as ovarian, head and neck, breast, and lung cancer are higher than that in normal tissues. To probe whether the high GSH level is also prevail in cancer cells in vitro, GSH-Glo™ Glutathione Assay was employed. Briefly, tumor and normal cells were seeded in 96-well white plate (5,000 cells/well) overnight prior to the study. BSO (1 mM) or GSH-MME (5 mM) in culture medium was added. For control group, only fresh culture medium was added. Cells were incubated for 8 h, and the intracellular GSH concentration was measured by GSH-Glo™ Glutathione Assay according to the manufacturer's instruction.
(§2) Accordingly, glutathione-monomethylester (GSH-MME, 5 mM) and buthionine sulfoxamine (BSO, 1 mM) were employed to boost or deplete the intracellular GSH level in normal cells (NIH 3T3, BNL CL.2, KC, and MCF 10A) or cancer cells (NCI/ADR-Res, HCT 116, UMSCC 22A, SKOV-3, and MDA-MB-231), respectively.

[2] = test system: SKOV-3 cells; assay: Cell cycle analysis by flow cytometry; assay type: cell-based; settings: 41.58 μM, 12 h, FIG. 14
Experimental: FIG. 14 presents cell cycle analysis of SKOV-3 cells after treated with 41.58 μM of PDA-PEG/Cu2+ for 12 h. Flow cytometry spectra (A) and quantitive analysis (B) of cell cycle. Data represent the means±SD, n=3. *p<0.01.
CDKN1C is an inhibitor for G1 cyclin/Cdk complexes and causes cell arrest in G1 phase. To investigate the effect of CDKN1C up-regulation after PDA-PEG/Cu^2+treatment, cell cycle analysis was employed.

[3] = test system: SKOV-3 cells; assay: Cellular uptake of Cy5 labeled nanoparticles, flow cytometry and confocal microscopy; assay type: cell-based; settings: DTNB binds exofacial free thiol groups
Experimental: FIG. 9 presents […] spectra of SKOV-3 (left) and NIH 3T3 (right) cells. Cellular uptake assays were carried out 1 h after the addition of nanoparticles. Scale bars were 20 μm.
FIG. 10 presents the flow cytometry spectra of SKOV-3 (left) and NIH 3T3 (right) cells treated with Cy5 labeled PDA-PEG nanoparticles. Cellular uptake assays were carried out 1 h after the addition of nanoparticles.
PDA-PEG was modified by Cy5 for cellular uptake study. Briefly, cysteamine (0.11 mg, 5% PDA function group) in 500 μL DMSO was added dropwise into 20 mg PDA-PEG in 500 μL DSMO and the reaction mixture was kept at room temperature overnight. After overnight reaction, Cy5-NHS ester (0.39 mg in 390 μL DMSO) was added and the mixture was kept for reacting overnight, following a thoroughly dialysis towards DMSO to remove free Cy5. The concentration of Cy5 in the final product was measured by a microplate reader (SpectraMax® M5. Molecular Devices Inc) at λex640 and λem680.
To probe the mechanism for PDA-PEG/Cu^2+ selectively killing cancer cells, the cellular uptake of PDA-PEG and PDA-PEG/Cu^2+ nanoparticle was investigated with flow cytometry and confocal microscopy. […] Therefore, the uptake of PDA-PEG/Cu^2+ wasn't the reason for its cancer-cell-selectivity. 5,5′-Dithio-bis-(2-nitrobenzoic acid) (DTNB) is a compound binds the free thiol groups on the surface of cell membrane. […]

[4] = test system: intracellular GSH in normal cells (NIH 3T3, BNL CL.2, KC, and MCF 10A); settings: GSH-MME 5 mM, 8 h
Experimental: as §1, §2

SMILES: CCCCS(=N)(=O)CCC(N)C(=O)O (stereo not shown) [BSO, Buthionine sulfoximine]
- intracellular GSH level [1]: declined GSH level

SMILES: [Cl][Cu][Cl] [Cu^2+ ion, CuCl2]
- effect on cell cycle distribution [2]: did not show any effect

SMILES: O=C(O)c1cc(SSc2ccc([N+](=O)[O-])c(C(=O)O)c2)ccc1[N+](=O)[O-] [DTNB, 5,5′-Dithio-bis-(2-nitrobenzoic acid)]
- effect on cellular uptake of PDA-PEG [3]: significantly inhibited

SMILES: COC(=O)CNC(=O)[C@H](CS)NC(=O)CC[C@H](N)C(=O)O [GSH-MME, Glutathione monomethylester]
- intracellular GSH level [4]: higher intracellular GSH level
